Test results taken from patent US6391896B1, “3-Tetrahydropyridin-4-yl indoles for treatment of psychotic disorders” (Duphar International Research BV, priority 1998, dated 2002).

`O=C1c2ccc(F)cc2C(=O)N1CCCCN1CC=C(c2c[nH]c3ccc(F)cc23)CC1` showed a melting point of 197 to 199 °C.
